Measurements published in patent US8952024B2, “Herbicidal pyrimidone derivatives” (E I du Pont de Nemours and Company, priority 2009, dated 2015).

Experiments:
Format in all cases: in vivo
[1] = test system: woolly cupgrass (Eriochloa villosa); assay: Test B pre-/postemergence plant response
Method in brief: (§1)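 Compound in solvent + surfactant applied pre-em (loam/sand) or post-em (plants 2–18 cm, peat medium); greenhouse hold 13–15 days; visual 0–100 control score.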

[2] = test system: yellow nutsedge (Cyperus esculentus); assay: Test B pre-/postemergence plant response
Method in brief: as §1

[3] = test system: large crabgrass (Digitaria sanguinalis); assay: Test B pre-/postemergence plant response
Method in brief: as §1

[4] = test system: velvetleaf (Abutilon theophrasti); assay: Test B pre-/postemergence plant response
Method in brief: as §1

[5] = test system: blackgrass (Alopecurus myosuroides); assay: Test B pre-/postemergence plant response
Method in brief: as §1

[6] = test system: downy bromegrass (Bromus tectorum); assay: Test B pre-/postemergence plant response
Method in brief: as §1

[7] = test system: goosegrass (Eleusine indica); assay: Test B pre-/postemergence plant response
Method in brief: as §1

[8] = test system: Italian ryegrass (Lolium multiflorum); assay: Test B pre-/postemergence plant response
Method in brief: as §1

[9] = test system: Surinam grass (Brachiaria decumbens); assay: Test B pre-/postemergence plant response
Method in brief: as §1

[10] = test system: morningglory (Ipomoea coccinea); assay: Test B pre-/postemergence plant response
Method in brief: as §1

[11] = test system: wheat (Triticum aestivum); assay: Test B pre-/postemergence plant response
Method in brief: as §1

[12] = test system: barnyardgrass (Echinochloa crus-galli); assay: Test A pre-/postemergence plant response
Method in brief: (§2)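 Formulated test chemicals (non-phytotoxic solvent, surfactant) were sprayed onto soil right after planting and simultaneously onto young plants at one to two leaves, 2 to 10 cm tall. Plants stayed in the greenhouse about ten days; injury was then visually scored against untreated controls, from 0 (no effect) to 100 (complete control).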

[13] = test system: pigweed (Amaranthus retroflexus); assay: Test A pre-/postemergence plant response
Method in brief: as §2

[14] = 31 g ai/ha, postemergence, scale 0 to 100, 0 is no effect, 100 is complete control
[15] = 62 g ai/ha, postemergence, 0 is no effect, 100 is complete control, 13 to 15 days
[16] = Postemergence, 125 g ai/ha, visual rating after 13 to 15 days, scale 0 (no effect) to 100 (complete control)
[17] = Postemergence, 250 g ai/ha, scale 0 to 100 (0 no effect, 100 complete control)
[18] = Postemergence, 125 g ai/ha, 0 to 100 scale where 0 is no effect and 100 is complete control
[19] = Postemergence, 500 g ai/ha, 0 to 100 scale, 0 = no effect, 100 = complete control, approx. ten days
[20] = Preemergence, 125 g ai/ha, 0 to 100 scale, 0 = no effect, 100 = complete control
[21] = Preemergence, 500 g ai/ha, visual injury, 0 to 100 scale (0 no effect, 100 complete control), approx. ten days

Structure (SMILES): O=C1CCCC(O)=C1C(=O)c1cnc(-c2ccccc2)n(C2CC2)c1=O [Compound 90]
- Plant response rating, Cupgrass, Woolly [1, 14]: 45
- Cupgrass, Woolly plant response rating (0 to 100 scale) [1, 15]: 45
- Plant response rating, Cupgrass, Woolly [1, 16]: 50
- Plant response rating, Cupgrass, Woolly [1, 17]: 55
- Plant response rating, Nutsedge, Yellow [2, 14]: 60
- Nutsedge, Yellow plant response rating (0 to 100 scale) [2, 15]: 65
- Plant response rating, Nutsedge, Yellow [2, 17]: 75
- Plant response rating, Crabgrass, Large [3, 14]: 65
- Crabgrass, Large plant response rating (0 to 100 scale) [3, 15]: 75
- Plant response rating, Crabgrass, Large [3, 16]: 75
- Plant response rating, Crabgrass, Large [3, 17]: 80
- Plant response rating, Velvetleaf [4, 14]: 85
- Velvetleaf plant response rating (0 to 100 scale) [4, 15]: 98
- Plant response rating, Velvetleaf [4, 17]: 100
- Plant response rating, Blackgrass [5, 14]: 5
- Blackgrass plant response rating (0 to 100 scale) [5, 15]: 5
- Plant response rating, Blackgrass [5, 16]: 5
- Plant response rating, Blackgrass [5, 17]: 30
- Plant response rating, Bromegrass, Downy [6, 14]: 5
- Bromegrass, Downy plant response rating (0 to 100 scale) [6, 15]: 5
- Plant response rating, Bromegrass, Downy [6, 16]: 10
- Plant response rating, Bromegrass, Downy [6, 17]: 10
- Plant response rating, Goosegrass [7, 14]: 60
- Goosegrass plant response rating (0 to 100 scale) [7, 15]: 60
- Plant response rating, Goosegrass [7, 17]: 75
- Plant response rating, Ryegrass, Italian [8, 14]: 0
- Ryegrass, Italian plant response rating (0 to 100 scale) [8, 15]: 0
- Plant response rating, Ryegrass, Italian [8, 17]: 0
- Plant response rating, Surinam Grass [9, 14]: 65
- Surinam Grass plant response rating (0 to 100 scale) [9, 15]: 65
- Plant response rating, Surinam Grass [9, 17]: 75
- Plant response rating, Morningglory [10, 14]: 65
- Morningglory plant response rating (0 to 100 scale) [10, 15]: 95
- Plant response rating, Morningglory [10, 17]: 100
- Plant response rating, Wheat [11, 14]: 5
- Wheat plant response rating (0 to 100 scale) [11, 15]: 10
- Plant response rating, Wheat [11, 17]: 35
- Plant response rating, Barnyardgrass [12, 18]: 80
- Plant response rating, Barnyardgrass [12, 19]: 90
- Plant response rating, Barnyardgrass [12, 20]: 40
- Plant response rating, Barnyardgrass [12, 21]: 70
- Plant response rating, Pigweed [13, 18]: 100
- Plant response rating, Pigweed [13, 19]: 100
- Plant response rating, Pigweed [13, 20]: 80
- Plant response rating, Pigweed [13, 21]: 100
